# In article PMC9234961 (Journal of Medicinal Chemistry, 2022):
# Like-named read-outs stand apart in the source and are kept apart here.
# Columns and labels:
# kinases (468) [1] = molecular target: kinases (468) (Homo sapiens, UniProt O00329); settings: PIK3CD; 1000 nM
# kinases (468) [2] = molecular target: kinases (468) (Homo sapiens, UniProt O00506); settings: kinase YSK1 (Entrez STK25); compound concentration 1000 nM
# kinases (468) [3] = molecular target: kinases (468) (Homo sapiens, UniProt O60674); settings: JAK2(JH1domain-catalytic); 1000 nM
# kinases (468) [4] = molecular target: kinases (468) (Homo sapiens, UniProt P00519, T315I); settings: 1000 nM
# kinases (468) [5] = molecular target: kinases (468) (Homo sapiens, UniProt P00533, L861Q); settings: EGFR(L861Q); 1000 nM
# kinases (468) [6] = molecular target: kinases (468) (Homo sapiens, UniProt P04626); settings: ERBB2; 1000 nM
# kinases (468) [7] = molecular target: kinases (468) (Homo sapiens, UniProt P08631); settings: HCK; 1000 nM
# kinases (468) [8] = molecular target: kinases (468) (Homo sapiens, UniProt P10721, V559D); settings: KIT(V559D); 1000 nM
# kinases (468) [9] = molecular target: kinases (468) (Homo sapiens, UniProt P22455); settings: FGFR4; 1000 nM
# kinases (468) [10] = molecular target: kinases (468) (Homo sapiens, UniProt P22694); settings: PKAC-beta (PRKACB); 1000 nM
# kinases (468) [11] = molecular target: kinases (468) (Homo sapiens, UniProt P23458); settings: 1000 nM
# kinases (468) [12] = molecular target: kinases (468) (Homo sapiens, UniProt P28482); settings: ERK2 (MAPK1); 1000 nM
# kinases (468) [13] = molecular target: kinases (468) (Homo sapiens, UniProt P29597); settings: compound concentration 1000 nM
# kinases (468) [14] = molecular target: kinases (468) (Homo sapiens, UniProt P33981); settings: kinase TTK (Entrez TTK); compound concentration 1000 nM
# kinases (468) [15] = molecular target: kinases (468) (Homo sapiens, UniProt P36888, K663Q); settings: FLT3(K663Q); 1000 nM
# kinases (468) [16] = molecular target: kinases (468) (Homo sapiens, UniProt P45984); settings: JNK2 (MAPK9); 1000 nM
# kinases (468) [17] = molecular target: kinases (468) (Homo sapiens, UniProt P53355); settings: DAPK1; 1000 nM
# kinases (468) [18] = molecular target: kinases (468) (Homo sapiens, UniProt P53671); settings: LIMK2; 1000 nM
# kinases (468) [19] = molecular target: kinases (468) (Homo sapiens, UniProt Q13043); settings: MST1 (STK4); 1000 nM
# kinases (468) [20] = molecular target: kinases (468) (Homo sapiens, UniProt Q13546); settings: kinase RIPK1 (Entrez RIPK1); compound concentration 1000 nM
# kinases (468) [21] = molecular target: kinases (468) (Homo sapiens, UniProt Q13554); settings: CAMK2B; 1000 nM
# kinases (468) [22] = molecular target: kinases (468) (Homo sapiens, UniProt Q13557); settings: CAMK2D; 1000 nM
# kinases (468) [23] = molecular target: kinases (468) (Homo sapiens, UniProt Q13705); settings: ACVR2B; 1000 nM
# kinases (468) [24] = molecular target: kinases (468) (Homo sapiens, UniProt Q6DT37); settings: DMPK2 (CDC42BPG); 1000 nM
# kinases (468) [25] = molecular target: kinases (468) (Homo sapiens, UniProt Q6P2M8); settings: CAMK1B (PNCK); 1000 nM
# kinases (468) [26] = molecular target: kinases (468) (Homo sapiens, UniProt Q92918); settings: HPK1 (MAP4K1); 1000 nM
# kinases (468) [27] = molecular target: kinases (468) (Homo sapiens, UniProt Q96BR1); settings: kinase SGK3 (Entrez SGK3); compound concentration 1000 nM
# kinases (468) [28] = molecular target: kinases (468) (Homo sapiens, UniProt Q96RR4); settings: CAMKK2; 1000 nM
# kinases (468) [29] = molecular target: kinases (468) (Homo sapiens, UniProt Q9HCP0); settings: CSNK1G1; 1000 nM
# kinases (468) [30] = molecular target: kinases (468) (Homo sapiens, UniProt Q9NWZ3); settings: IRAK4; 1000 nM
# kinases (468) [31] = molecular target: kinases (468) (Homo sapiens, UniProt Q9P1W9); settings: PIM2; 1000 nM
# kinases (468) [32] = molecular target: kinases (468) (Homo sapiens, UniProt Q9UBF8); settings: PIK4CB (PI4KB); 1000 nM
# kinases (468) [33] = molecular target: kinases (468) (Homo sapiens, UniProt Q9Y2K2); settings: QSK (KIAA0999); 1000 nM
# kinases (468) [34] = molecular target: kinases (468) (Homo sapiens, UniProt Q9Y6E0); settings: MST3 (STK24); 1000 nM
# Chain of kinases (468) (Homo sapiens, UniProt P23458) (P23458 whole entry): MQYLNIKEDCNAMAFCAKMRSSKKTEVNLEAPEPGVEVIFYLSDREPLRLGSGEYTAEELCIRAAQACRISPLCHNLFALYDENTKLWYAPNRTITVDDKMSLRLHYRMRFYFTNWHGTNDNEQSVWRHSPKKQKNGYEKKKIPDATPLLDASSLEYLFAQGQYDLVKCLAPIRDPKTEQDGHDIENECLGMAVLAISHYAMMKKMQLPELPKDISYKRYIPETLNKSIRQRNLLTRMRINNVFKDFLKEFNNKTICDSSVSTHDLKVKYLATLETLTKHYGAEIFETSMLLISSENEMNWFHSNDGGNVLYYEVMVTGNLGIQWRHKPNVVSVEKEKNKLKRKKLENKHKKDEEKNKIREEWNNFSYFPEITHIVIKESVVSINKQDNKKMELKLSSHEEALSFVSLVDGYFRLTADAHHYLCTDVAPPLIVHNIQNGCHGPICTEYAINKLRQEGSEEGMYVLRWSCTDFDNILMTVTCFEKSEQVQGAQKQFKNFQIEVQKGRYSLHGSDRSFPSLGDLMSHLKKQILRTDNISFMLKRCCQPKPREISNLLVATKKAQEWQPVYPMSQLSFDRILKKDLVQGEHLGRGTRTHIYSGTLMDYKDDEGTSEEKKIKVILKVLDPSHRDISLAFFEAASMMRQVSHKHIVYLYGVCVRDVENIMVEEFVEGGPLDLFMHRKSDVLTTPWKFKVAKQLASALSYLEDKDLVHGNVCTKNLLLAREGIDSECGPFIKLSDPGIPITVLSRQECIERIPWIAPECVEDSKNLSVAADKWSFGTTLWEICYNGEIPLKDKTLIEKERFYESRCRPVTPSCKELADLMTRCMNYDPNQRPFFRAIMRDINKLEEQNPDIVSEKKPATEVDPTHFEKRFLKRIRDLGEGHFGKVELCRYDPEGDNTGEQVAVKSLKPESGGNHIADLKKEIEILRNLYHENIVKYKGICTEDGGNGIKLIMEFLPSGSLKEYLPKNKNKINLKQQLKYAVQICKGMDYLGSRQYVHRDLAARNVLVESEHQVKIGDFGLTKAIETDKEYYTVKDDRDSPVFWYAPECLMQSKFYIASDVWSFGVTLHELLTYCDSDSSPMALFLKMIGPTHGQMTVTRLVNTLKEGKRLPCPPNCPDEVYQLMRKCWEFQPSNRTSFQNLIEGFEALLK
# Chain of kinases (468) (Homo sapiens, UniProt P29597) (P29597 whole entry): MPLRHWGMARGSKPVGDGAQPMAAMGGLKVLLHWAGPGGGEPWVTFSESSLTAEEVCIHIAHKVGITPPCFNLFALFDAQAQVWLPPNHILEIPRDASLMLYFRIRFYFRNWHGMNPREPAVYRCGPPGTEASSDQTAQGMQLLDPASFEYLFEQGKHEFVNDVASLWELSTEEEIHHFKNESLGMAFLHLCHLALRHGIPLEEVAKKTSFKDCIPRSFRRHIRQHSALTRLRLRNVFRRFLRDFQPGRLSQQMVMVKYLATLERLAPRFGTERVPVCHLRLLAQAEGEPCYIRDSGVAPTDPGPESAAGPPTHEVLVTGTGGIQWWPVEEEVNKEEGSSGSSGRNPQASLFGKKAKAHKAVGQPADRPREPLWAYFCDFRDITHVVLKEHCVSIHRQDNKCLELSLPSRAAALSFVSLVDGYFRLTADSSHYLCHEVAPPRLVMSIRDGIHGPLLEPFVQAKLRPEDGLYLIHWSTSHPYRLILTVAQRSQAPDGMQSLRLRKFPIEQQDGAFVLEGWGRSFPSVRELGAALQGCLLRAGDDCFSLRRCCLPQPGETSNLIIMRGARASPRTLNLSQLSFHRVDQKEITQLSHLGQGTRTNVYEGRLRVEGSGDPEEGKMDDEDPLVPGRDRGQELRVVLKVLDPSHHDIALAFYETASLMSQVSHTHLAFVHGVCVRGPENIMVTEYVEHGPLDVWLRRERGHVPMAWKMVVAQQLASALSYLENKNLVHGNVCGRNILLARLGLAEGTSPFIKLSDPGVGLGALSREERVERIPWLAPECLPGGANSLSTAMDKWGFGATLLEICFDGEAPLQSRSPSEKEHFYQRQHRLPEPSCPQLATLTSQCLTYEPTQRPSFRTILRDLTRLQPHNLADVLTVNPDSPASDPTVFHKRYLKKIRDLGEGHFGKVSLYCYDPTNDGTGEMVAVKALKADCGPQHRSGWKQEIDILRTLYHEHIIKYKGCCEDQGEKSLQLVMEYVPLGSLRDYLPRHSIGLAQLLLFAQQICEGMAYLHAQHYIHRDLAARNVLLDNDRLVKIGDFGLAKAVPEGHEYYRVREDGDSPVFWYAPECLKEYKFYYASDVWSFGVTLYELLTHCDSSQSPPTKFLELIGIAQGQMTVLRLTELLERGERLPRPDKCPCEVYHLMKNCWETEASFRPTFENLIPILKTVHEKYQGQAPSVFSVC
# Chain of kinases (468) (Homo sapiens, UniProt P22455) (P22455 22-802): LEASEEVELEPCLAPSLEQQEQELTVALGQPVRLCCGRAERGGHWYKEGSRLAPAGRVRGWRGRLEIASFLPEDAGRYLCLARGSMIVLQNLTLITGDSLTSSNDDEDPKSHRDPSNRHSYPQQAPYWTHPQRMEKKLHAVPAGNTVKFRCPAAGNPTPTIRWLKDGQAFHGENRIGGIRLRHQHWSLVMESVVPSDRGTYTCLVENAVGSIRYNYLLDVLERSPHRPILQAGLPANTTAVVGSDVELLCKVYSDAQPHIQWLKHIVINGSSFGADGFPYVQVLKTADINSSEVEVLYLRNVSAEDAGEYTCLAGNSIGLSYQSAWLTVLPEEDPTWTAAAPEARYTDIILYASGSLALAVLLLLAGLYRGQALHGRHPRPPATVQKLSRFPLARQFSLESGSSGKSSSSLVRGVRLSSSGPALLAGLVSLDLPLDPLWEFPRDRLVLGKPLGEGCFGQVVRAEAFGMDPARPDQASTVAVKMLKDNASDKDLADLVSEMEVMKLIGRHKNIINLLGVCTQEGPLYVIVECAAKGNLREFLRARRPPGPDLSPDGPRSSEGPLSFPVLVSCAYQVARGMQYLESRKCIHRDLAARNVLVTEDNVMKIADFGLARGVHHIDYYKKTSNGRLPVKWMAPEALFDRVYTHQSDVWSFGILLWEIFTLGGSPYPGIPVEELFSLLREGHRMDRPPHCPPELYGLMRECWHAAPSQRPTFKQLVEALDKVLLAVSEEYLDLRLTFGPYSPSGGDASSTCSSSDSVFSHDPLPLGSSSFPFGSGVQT
# Chain of kinases (468) (Homo sapiens, UniProt O60674) (O60674 whole entry): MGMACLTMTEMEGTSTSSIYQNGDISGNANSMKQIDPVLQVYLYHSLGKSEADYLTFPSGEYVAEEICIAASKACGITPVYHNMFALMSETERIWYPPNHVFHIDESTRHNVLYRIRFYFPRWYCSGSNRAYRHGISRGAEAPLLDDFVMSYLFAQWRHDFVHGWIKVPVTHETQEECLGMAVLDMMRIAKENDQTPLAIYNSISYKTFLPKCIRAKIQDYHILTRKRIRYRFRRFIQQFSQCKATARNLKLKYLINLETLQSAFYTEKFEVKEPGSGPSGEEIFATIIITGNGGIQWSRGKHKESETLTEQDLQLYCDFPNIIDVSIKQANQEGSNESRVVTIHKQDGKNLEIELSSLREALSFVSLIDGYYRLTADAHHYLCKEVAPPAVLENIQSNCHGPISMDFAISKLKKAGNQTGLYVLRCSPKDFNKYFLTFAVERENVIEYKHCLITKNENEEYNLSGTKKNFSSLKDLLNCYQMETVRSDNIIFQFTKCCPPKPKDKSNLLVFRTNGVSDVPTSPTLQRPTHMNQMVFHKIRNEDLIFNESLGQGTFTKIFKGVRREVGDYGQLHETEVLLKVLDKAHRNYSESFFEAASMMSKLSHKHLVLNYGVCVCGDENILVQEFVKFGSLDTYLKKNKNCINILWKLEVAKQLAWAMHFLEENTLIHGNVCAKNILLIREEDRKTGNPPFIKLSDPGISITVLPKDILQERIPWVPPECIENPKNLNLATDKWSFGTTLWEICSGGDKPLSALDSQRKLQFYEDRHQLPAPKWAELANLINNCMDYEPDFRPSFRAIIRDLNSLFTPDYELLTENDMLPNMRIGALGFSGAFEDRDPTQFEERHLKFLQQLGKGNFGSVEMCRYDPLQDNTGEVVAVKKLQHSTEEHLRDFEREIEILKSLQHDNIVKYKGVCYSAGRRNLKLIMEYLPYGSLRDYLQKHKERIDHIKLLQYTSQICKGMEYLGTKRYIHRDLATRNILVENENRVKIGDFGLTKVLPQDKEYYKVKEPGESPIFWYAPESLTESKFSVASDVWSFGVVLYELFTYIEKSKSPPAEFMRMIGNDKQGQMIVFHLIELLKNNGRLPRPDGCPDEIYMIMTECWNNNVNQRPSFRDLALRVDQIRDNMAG
# Chain of kinases (468) (Homo sapiens, UniProt Q96BR1) (Q96BR1 whole entry): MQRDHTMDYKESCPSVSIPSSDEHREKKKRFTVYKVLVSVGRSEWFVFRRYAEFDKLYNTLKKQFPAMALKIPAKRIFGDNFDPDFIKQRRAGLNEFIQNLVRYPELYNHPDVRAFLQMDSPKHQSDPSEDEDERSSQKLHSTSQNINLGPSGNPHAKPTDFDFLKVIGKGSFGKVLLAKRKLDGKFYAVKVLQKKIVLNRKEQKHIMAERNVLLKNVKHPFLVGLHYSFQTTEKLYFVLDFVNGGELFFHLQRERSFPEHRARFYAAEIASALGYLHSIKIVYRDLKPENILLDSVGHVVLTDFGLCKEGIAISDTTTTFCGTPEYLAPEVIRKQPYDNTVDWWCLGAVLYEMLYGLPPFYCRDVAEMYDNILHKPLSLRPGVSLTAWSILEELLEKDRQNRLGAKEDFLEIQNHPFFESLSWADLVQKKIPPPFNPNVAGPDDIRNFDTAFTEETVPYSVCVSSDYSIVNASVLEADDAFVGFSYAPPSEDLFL
# Chain of kinases (468) (Homo sapiens, UniProt Q9P1W9) (Q9P1W9 whole entry): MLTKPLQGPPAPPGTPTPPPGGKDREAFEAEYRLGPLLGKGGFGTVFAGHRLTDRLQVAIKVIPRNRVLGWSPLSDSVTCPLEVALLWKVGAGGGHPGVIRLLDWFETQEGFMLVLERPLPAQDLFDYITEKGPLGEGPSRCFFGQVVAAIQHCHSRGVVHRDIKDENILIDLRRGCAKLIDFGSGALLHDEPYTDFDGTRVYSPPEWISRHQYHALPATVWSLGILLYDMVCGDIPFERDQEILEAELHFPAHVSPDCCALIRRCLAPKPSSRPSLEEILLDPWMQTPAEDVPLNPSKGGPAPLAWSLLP
smiles,measurement,setting,value
C[C@H]1C[C@@H](O)CN(c2ncc(Cl)c(Nc3ccc4c(c3)c3c(c(=O)n4C)OCC(F)(F)[C@H](C4CC4)N3)n2)C1 [CCT373566_9A],Percent Control,kinases (468) [1],90%
same,Percent Control,kinases (468) [2],91%
same,Percent Control,kinases (468) [3],97%
same,Percent Control,kinases (468) [4]; ABL1(T315I)-nonphosphorylated,89%
same,Percent Control,kinases (468) [4]; ABL1(T315I)-phosphorylated,88%
same,Percent Control,kinases (468) [5],100%
same,Percent Control,kinases (468) [6],94%
same,Percent Control,kinases (468) [7],98%
same,Percent Control,kinases (468) [8],100%
same,Percent Control,kinases (468) [9],100%
same,Percent Control,kinases (468) [10],80%
same,Percent Control,kinases (468) [11]; JAK1(JH1domain-catalytic),100%
same,Percent Control,kinases (468) [11]; JAK1(JH2domain-pseudokinase),90%
same,Percent Control,kinases (468) [12],96%
same,Percent Control,kinases (468) [13]; kinase TYK2(JH1domain-catalytic) (Entrez TYK2),97%
same,Percent Control,kinases (468) [13]; kinase TYK2(JH2domain-pseudokinase) (Entrez TYK2),89%
same,Percent Control,kinases (468) [14],91%
same,Percent Control,kinases (468) [15],97%
same,Percent Control,kinases (468) [16],78%
same,Percent Control,kinases (468) [17],83%
same,Percent Control,kinases (468) [18],100%
same,Percent Control,kinases (468) [19],99%
same,Percent Control,kinases (468) [20],100%
same,Percent Control,kinases (468) [21],76%
same,Percent Control,kinases (468) [22],88%
same,Percent Control,kinases (468) [23],84%
same,Percent Control,kinases (468) [24],100%
same,Percent Control,kinases (468) [25],69%
same,Percent Control,kinases (468) [26],82%
same,Percent Control,kinases (468) [27],99%
same,Percent Control,kinases (468) [28],88%
same,Percent Control,kinases (468) [29],97%
same,Percent Control,kinases (468) [30],80%
same,Percent Control,kinases (468) [31],98%
same,Percent Control,kinases (468) [32],94%
same,Percent Control,kinases (468) [33],90%
same,Percent Control,kinases (468) [34],80%
